Assay results published in article PMC9995496, “A screen for MeCP2-TBL1 interaction inhibitors using a luminescence-based assay” (Scientific Reports, 2023).

Target: T1, MeCP2-TBL1 interaction (MeCP2-SmBiT / TBL1-LgBiT) (Mus musculus, UniProt Q9QXE7)
T1 construct: expressed in transfected cells; crude lysate used as a cell-free assay
T1 sequence (Q9QXE7 166-527): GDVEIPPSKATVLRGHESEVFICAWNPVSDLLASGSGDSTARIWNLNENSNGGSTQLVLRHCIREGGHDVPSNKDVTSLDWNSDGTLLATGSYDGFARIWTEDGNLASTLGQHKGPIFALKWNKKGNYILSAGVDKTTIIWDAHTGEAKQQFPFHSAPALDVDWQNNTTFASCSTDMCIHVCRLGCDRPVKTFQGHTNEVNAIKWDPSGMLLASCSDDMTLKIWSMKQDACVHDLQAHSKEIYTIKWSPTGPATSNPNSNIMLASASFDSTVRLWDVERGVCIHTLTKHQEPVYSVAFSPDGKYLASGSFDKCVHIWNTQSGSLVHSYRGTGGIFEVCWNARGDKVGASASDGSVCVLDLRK
Assay: MeCP2-TBL1 NanoLuc luciferase complementation assay (cell-free, extracts of transfected HEK293 cells);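 further: each compound tested at 20 µM final concentration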
Assay type: binding, human
Settings: primary screen of Asinex library, single well per compound
In short: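 Cell-free split NanoLuc: lysate of HEK293 cells co-expressing the MeCP2 C-terminal half-SmBiT and TBL1 WD domain-LgBiT, mixed 1:1 with furimazine. After 30 min at room temperature, luminescence was plate-median normalized.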

Point of comparison: COc1cccc2c1OC(C)(C)[C@@H]1C[C@H]3CN(CC(=O)Nc4ccc(C(C)=O)cc4)CC[C@H]3O[C@@H]21 [BDG_51129062], Inhibition percent 4.58. Against it:
- CC(C)(NC(=O)Cc1ccccc1)C(=O)N1CCCC(Cc2cccn3ccnc23)CC1 (stereo not drawn) [BDH_32327598] — lower, -2.43
- C[C@]12C[C@@H]3N[C@H]1CCCC[C@H]2N(C(=O)COc1ccc(F)cc1F)[C@H]3Cc1ccccc1 [BDG_33505865] — lower, 1.00
- CC1(C)Oc2c(O)cccc2[C@H]2O[C@H]3CCN(C(=O)c4cccc(Cn5ccnc5)c4)[C@@H]3C[C@@H]21 [BDG_34133876] — higher, 5.67
- COc1cccc([C@@H]2C[C@]3(C)NC(=O)CCCC[C@@H]3N2CC(=O)Nc2ccn(C)n2)c1 [BDH_33620384] — lower, -2.63
- CN1C(=O)C2(CCN(C(=O)c3cccc(Nc4ncccn4)c3)CC2)CC1Cc1ccc(F)cc1 (stereo not drawn) [BDH_32371589] — higher, 8.79
- CC(C)CCC[C@@]1(C)Oc2cc(O)ccc2[C@H]2OCC3(CCNCC3)C[C@@H]21 [BDG_34020305] — higher, 19.22
- CN(C)c1ncc(-c2cccc(C(N)=O)c2)c(C2CCCCN2CC(=O)NCc2ccccn2)n1 (stereo not drawn) [BDE_33632669] — lower, -2.55
- CC(=O)N[C@@]12CN(C)CC[C@@H]1[C@@H](c1ccccc1)N(C(=O)c1cccc(-n3nc(C)cc3C)c1)C2 [BDH_32365020] — lower, -3.43
- O=C(c1ccccc1Cn1ccnc1)N1CCOCC2(C1)CN(c1ccc(Cl)cc1)C(=O)O2 (stereo not drawn) [BDH_32374184] — lower, 1.12
- C[C@]12C[C@@H](c3ccccc3)N(CC(=O)N3CC(=O)Nc4ccccc43)[C@H]1CCCCCN2 [BDH_32250993] — lower, 1.88
- CC(=O)N1CCC(Cc2ccc(F)cc2)(C(=O)N2CCCC(Cc3cccc(C)n3)C2)CC1 (stereo not drawn) [BDH_32369388] — lower, -2.67
- O=C(c1cccc(Oc2ncccn2)c1)N1CCCC2(CC1)CN(c1cccc(F)c1)C(=O)O2 (stereo not drawn) [BDH_32369515] — lower, -4.84
- Cc1nc2ccc(NC(=O)CN3C[C@@H](c4cc(F)cc(F)c4)[C@@]4(CCCCC(=O)N4)C3)cc2[nH]1 [BDH_33616136] — lower, -1.00
- CN(Cc1ccccc1)[C@@H]1[C@@H](O)[C@H](Oc2ccccc2F)C[C@H]1NC(=O)CC(C)(C)CC(=O)O [BDG_34135529] — lower, 1.25
- COCC(=O)N1CCC(C)(C(=O)N2CCCC2c2ccnc(-c3cccc(Cl)c3)n2)CC1 (stereo not drawn) [BDH_32373816] — lower, 0.44
- CN(Cc1ccc(F)cc1)[C@@H]1[C@@H](O)[C@H](Oc2cccc(F)c2)C[C@H]1NC(=O)c1cccc(C(=O)O)c1 [BDG_34135616] — lower, 1.33
- CC(=O)N[C@@]12CCN(CC(=O)Nc3cc(C)ccc3F)C[C@@H]1[C@@H](c1ccccc1)N(C(C)=O)C2 [BDH_33619766] — lower, -3.87
- Cc1cc(C)n(-c2cccc(C(=O)N3CCCC(c4cncc(Oc5ccccc5)n4)C3)c2)n1 (stereo not drawn) [BDH_32356802] — lower, -1.24

Same assay, conditions: primary screen of the Asinex library, sheet "Sargen output Asinex library", one well per compound

Point of comparison: O=C(c1ccccc1CN1CCOCC1)N1CCCC(Cc2cnc3ccccc3c2)CC1 (stereo not drawn) [BDH_32342370], Inhibition percent -1.09%. Against it:
- O=C(c1ccccc1CN1CCOCC1)N1C2CCC1CC(Cc1cncc3ccccc13)C2 (stereo not drawn) [BDH_32360830] — higher, -0.42%
- Cc1cc(C)nc(NCCC(=O)N2CCOC(c3cccc(Cc4ccccc4C)n3)C2)n1 (stereo not drawn) [BDF_25252602] — lower, -1.37%
- CC(=O)N[C@@]12CN(C)CC[C@@H]1[C@@H](c1ccccc1)N(CC(=O)Nc1ccc3c(c1)OCCO3)C2 [BDH_33617398] — lower, -1.20%
- CC(C)(C)OC(=O)N1CC[C@H]2O[C@H]3c4ccc(O)cc4OC(C)(C)[C@@H]3C[C@@H]2C1 [BDG_33953342] — higher, 2.11%
- O=C(Cn1cccc(C(=O)NCc2ccccc2)c1=O)NC1(c2ccccc2)CCCC1 [BDB_26402348] — higher, 2.11%
- O=C(c1ccccc1CN1CCOCC1)N1CCOCC(Cc2ccc3ccncc3c2)C1 (stereo not drawn) [BDH_32372076] — lower, -4.00%
- Cc1ccc(Oc2cc(C)nc(C3CCCCN3C(=O)c3ccnc(-c4cnn(C)c4)c3)n2)cc1 (stereo not drawn) [BDH_32357088] — higher, 0.88%
- COc1cccc2c1OC(C)(C)[C@H]1CC3(CO[C@H]21)CN(Cc1cn(C)cn1)C3 [BDG_33739186] — higher, -0.50%
- COCC(=O)N1CC[C@H]2O[C@H]3c4ccccc4OC(C)(C)[C@@H]3C[C@H]21 [BDG_33900725] — higher, 0.0324%
- CC(C)C[C@H]1CN(C(=O)c2ccc(O)cc2)CC[C@H]1Nc1cccc(Cl)c1 [BDG_34030674] — higher, 7.44%
- O=C(c1ccccc1Cn1cccn1)N1CCCC1c1cncc(Cc2cccc(F)c2)n1 (stereo not drawn) [BDH_32340865] — higher, 0.32%
- C[C@@H]1CC[C@@H]2[C@@H](O1)c1cc(OCc3ccccc3)c(CO)cc1OC2(C)C [BDG_34027487] — higher, -0.0357%
- COc1cccc2c1OC(C)(C)[C@H]1CC3(CCN(C(=O)CCCc4ccncc4)CC3)CO[C@H]21 [BDG_33693373] — lower, -2.47%
- C[C@@H]1CC[C@@H]2[C@@H](C1)c1c(ccc(C(=O)O)c1O)OC2(C)C [BDG_33904752] — higher, 2.57%
- COc1ccc(C2(C(=O)N3CCCC(Cc4cccc5ccncc45)CC3)CCOCC2)cc1 (stereo not drawn) [BDH_32359024] — higher, 2.06%
- COc1ccccc1Cc1ccc(C(=O)N2CCCC2c2cncc(-c3nc(C)c[nH]3)n2)cn1 (stereo not drawn) [BDH_33521296] — lower, -4.74%
- O=[N+]([O-])c1ccc2c(c1)[C@H]1OCCC[C@@H]1C1(CCCCC1)O2 [BDG_33907582] — higher, 0.74%
- CC(=O)N1CCN(CC(=O)NCCc2nc3ccccc3[nH]2)CC1c1ccc(C(F)(F)F)cc1 (stereo not drawn) [BDH_33616082] — lower, -1.86%
- CC(C)(C)OC(=O)NCCC(=O)N(Cc1ccccc1)C[C@@H]1C[C@@H](n2ccc(=O)[nH]c2=O)[C@@H](O)[C@@H]1O [BDH_33952010] — lower, -1.46%
- O=C(O)c1ccccc1CN1CCCC(c2ncc(Cc3ccc(Cl)cc3)o2)C1 (stereo not drawn) [BDE_33511194] — lower, -2.52%

Same assay, conditions: primary screen of the Asinex library, sheet "Sargen output Asinex library", one well per compound, Batch Ref. 1

Point of comparison: CN1C(=O)C2(CCN(C(=O)C3(c4ccccc4)CCOCC3)CC2)CC1Cc1ccccc1 (stereo not drawn) [BDH_32374590], Inhibition percent 0.40%. Against it:
- CN(Cc1ccccc1)[C@@H]1[C@@H](O)[C@H](Oc2cccc(C(F)(F)F)c2)C[C@H]1NC(=O)c1cocn1 [BDI_34061115] — higher, 4.93%
- O=C(c1cccc(-c2cncnc2)n1)N1CCCCC1c1ncc(Cc2cccc(F)c2)o1 (stereo not drawn) [BDE_33514471] — lower, -1.40%
- COc1ccc(N2CCN(CC3(O)CCN(c4cccc(C)c4)CC3)C(C(N)=O)C2)cc1 (stereo not drawn) [BDH_33612322] — lower, -0.28%
- COc1ccc(Oc2cncc(C3CCN(C(=O)C4(c5ccccc5)CCOCC4)CC3)n2)cc1 [BDH_32362557] — higher, 3.43%
- O=C(Cn1cc(C(=O)NC2CCCCC2)ccc1=O)NCC1(c2ccccc2Cl)CC1 [BDB_26414870] — higher, 4.99%
- Cc1ccc2c(c1)OC(C)(C)[C@H]1CC3(CCN(C(=O)CN4CCOCC4)CC3)CO[C@H]21 [BDG_33692107] — lower, -1.45%
- COc1cccc(Cc2cnc(C3CCCCN3C(=O)c3cccnc3-c3cncs3)o2)c1 (stereo not drawn) [BDE_33514740] — higher, 1.71%
- Cc1nnc(Nc2cccc(C3CN(C(=O)Cn4c(C)cc5ccccc54)CCO3)n2)s1 (stereo not drawn) [BDF_25244494] — lower, -1.26%
- Cc1nc2cc(NC(=O)CN3C[C@@H](c4cc(F)cc(F)c4)[C@@]4(CCCCC(=O)N4)C3)ccc2n1C [BDH_33617993] — higher, 1.15%
- COc1cccc(C(=O)N2CCNC(=O)C2Cc2cccc(-c3cccc(F)c3)c2)c1OC (stereo not drawn) [BDD_21847933] — higher, 1.68%
- C[C@@]12C[C@H]3[C@@H](Cc4ccccc4)N[C@@H]1CCCC[C@@H]2N3C(=O)CNC(=O)c1cncc(O)c1 [BDG_33504652] — higher, 0.85%
- COc1ccccc1Cc1cnc(C2CCCN(C(=O)c3cc(-c4ccc(F)cc4)no3)C2)o1 (stereo not drawn) [BDE_33509516] — higher, 6.24%
- Cc1nc(C2CCN(C(=O)C3CCCC3)CC2)nc2c1CCC(=O)N2CCc1ccccc1 [BDE_24748773] — lower, -0.38%
- O=C(c1ccccn1)N1CCCC1c1cccc(Cc2ccc(C(F)(F)F)cc2)n1 (stereo not drawn) [BDD_27852665] — lower, -2.94%
- Cc1cc(CCCC(=O)N2CCC(c3nc(N(C)C)ncc3-c3cncnc3)C2)ccc1F (stereo not drawn) [BDF_24540183] — lower, 0.11%
- COc1cccc([C@@H]2C[C@]3(C)NC(=O)CCCC[C@@H]3N2CC(=O)NCCc2nc3ccccc3[nH]2)c1 [BDH_33615965] — lower, 0.09%
- NC(=O)c1cc(C2CN(C(=O)c3ccnc(N4CCCCC4)c3)CCO2)nc2ccccc12 (stereo not drawn) [BDD_24083754] — lower, -2.41%
- COc1ccc([C@@H]2C[C@]3(C)NC(=O)CCC[C@@H]3N2CC(=O)Nc2ccc3c(c2)nc(C)n3C)cc1 [BDH_33618124] — higher, 4.89%
- CN(C)[C@@H]1C[C@@H](C(N)=O)N(CC(=O)Nc2ccc(Oc3ccccc3)cc2)[C@H]1c1ccccc1 [BDG_33626169] — higher, 3.84%
- O=C(O)CCC(=O)N[C@@H]1C[C@@H](Oc2cccc(Cl)c2)[C@H](O)[C@H]1N1CCc2ccccc2C1 [BDG_34049608] — lower, -0.68%
- CC1(C)Oc2cc(O)ccc2[C@@H]2O[C@@H]3CCCN(C(=O)CCCC(=O)O)[C@@H]3C[C@H]21 [BDG_34129513] — higher, 5.44%
- COc1ccc2c(c1)[C@H]1OCC3(CCN(S(C)(=O)=O)CC3)C[C@@H]1C(C)(C)O2 [BDG_33690555] — lower, -0.51%
